Measurements from patent US20250275918A1, “LIPID COMPOSITIONS AND METHODS FOR NUCLEIC ACID DELIVERY” (GREENLIGHT BIOSCIENCES, INC., priority 2022, published 2025).

Experiments:
[1] = Hemolysis assay (endosomal escape ability of LNPs); type: cell-based; settings: pH 7.4; LNPs formulated with the lipid
Description: (§1) The formulation was kept at 4° C. until used in the luciferase expression assay to evaluate LNP's potency, and for toxicity using LDH assay in the HeLa and HEK293 cells. LNPs were used in the TNS assay to determine the experimental (apparent) pKa of the ionizable lipid. Hemolysis assay was used to determine the indirect endosomal escape (EE) capability of the LNPs. LNPs were evaluated in vivo for luciferase expression 6 h and 24 h post-dose in mice through i.m. injection at […]. Mice were sacrificed at the end point and then organs were harvested for ex-vivo imaging.
FIG. 6 illustrates endosomal escape ability of LNPs formulated using the ionizable lipids using a hemolysis assay.

Hek 293 FT cells = experiment: LDH toxicity assay; type: cell-based; settings: two separate batches
Description: GILP-133 was tested in an assay to measure the level of lactate dehydrogenase (LDH), also known as lactic acid dehydrogenase. The LDH assay protocol is based on an enzymatic coupling reaction: LDH released from the cell oxidizes lactate to generate NADH, which then reacts with WST to generate a yellow color. The intensity of the generated color correlates directly with the number of lysed cells. This gives an indication of cytotoxicity, looking at the % of viable cells remaining. In this testing, Hek 293 FT cells were used 10 uL 1% Triton was added to positive control wells and incubated for 5 min. 50 uL cell culture medium was transferred to black 96-well plate. 50 uL LDH assay solution is added and incubated for 10 min at room temperature. Subsequently 50 ul stop solution was added and fluorescence intensity was read using a microplate reader.

mice = experiment: Animal luciferase expression study, intramuscular injection, IVIS imaging; type: in vivo; settings: i.m., 5 μg of mRNA per mouse, organs at 24 h, compared to all GIL-133 formulations
Description: as §1
These samples were injected to mice through intramuscular injection at the leg site at a dose of 5 μg of mRNA per mouse. Compositions with control LNP of FIG. 7 were used as positive control. At 6 h and 24 h post injection, the mice were subjected to IVIS imaging system to take the whole-body image. […] The same trend was found in the whole-body imaging results.
At 24 h, the mice were sacrificed, and the main organs include heart, liver, spleen, lung, kidneys, muscle, dLNs and ndLNs were collected and imaged. […] All results are shown in 11A, 11B, 11C, 11D, and 11E.

CCCCCCCCC(CCCCCC)C(=O)OCCCCCCCN(C)CCCN(C)CCCCCCCOC(=O)C(CCCCCC)CCCCCCCC (centres unmarked) [GILP-124, (propane-1,3-diylbis(methylazanediyl))bis(heptane-7,1-diyl)bis(2-hexyldecanoate)]
hemolysis at neutral pH [1]: negligible hemolysis

CCCCCCCCC(CCCCCC)C(=O)OCCCCCCCN(CC)CCCN(CC)CCCCCCCOC(=O)C(CCCCCC)CCCCCCCC (centres unmarked) [GILP-126, (propane-1,3-diylbis(ethylazanediyl))bis(heptane-7,1-diyl)bis(2-hexyldecanoate)]
hemolysis at neutral pH [1]: negligible hemolysis

CCCCCCCCC(CCCCCC)C(=O)OCCCCCCCN(C)[C@@H]1CCCC[C@H]1N(C)CCCCCCCOC(=O)C(CCCCCC)CCCCCCCC (stereo partly drawn) [GILP-133, (((1R,2S)-cyclohexane-1,2-diyl)bis(methylazanediyl))bis(heptane-7,1-diyl)bis(2-hexyldecanoate)]
% cell viability compared to control cationic lipid of FIG. 7 (Hek 293 FT cells): equivalent % cell viability

CCCCCCCCCCCOC(=O)CCCCCN(CCO)CCCCCCCC(=O)OC(CCCCCCCC)CCCCCCCC [positive control, heptadecan-9-yl 8-[2-hydroxyethyl-(6-oxo-6-undecoxyhexyl)amino]octanoate]
luciferase expression in ndLNs (mice): higher level of luciferase expression
luciferase expression in spleen (mice): higher level of luciferase expression
